From patent publication US11684595B2, “Characterization of the oral microbiome for the non-invasive diagnosis of Barrett's esophagus” (The Trustees of Columbia University in the City of New York, priority 2017, dated 2023)

Assays:
Assay type in all cases: in vivo, human
[1] = tested on: culturable bacteria in the esophagus; test: Culture of esophageal brushings on TSA plates with 5% sheep blood after two weeks of mouth rinse (randomized trial)
Experimental: A randomized controlled trial of chlorhexidine antimicrobial mouth rinse study was conducted in patients scheduled to undergo upper endoscopy. It is postulated that the microbiome may play a role in the development of various esophageal and other upper gastrointestinal diseases such as Barrett's esophagus and esophageal cancer. The microbiome of the upper gastrointestinal tract is heavily influenced by migration of bacteria from the mouth via swallowed secretions. Therefore, it stands to reason that altering the oral microbiome can directly impact the microbiome of the esophagus and gastric cardia. Chlorhexidine mouth rinse (i.e. an antiseptic oral rinse) effectively alters levels of many bacteria in the mouth, including anaerobes and species that are not easily cultured, and also has anti-inflammatory effects. A randomized open-label pilot study was performed to test this hypothesis that use of an antimicrobial mouth rinse alters the microbiome of the lower esophagus and gastric cardia.
(§1) The enrolled subjects were those already scheduled for upper endoscopy for clinical indications. • Subjects were randomized 1:1 to receive 0.12% chlorhexidine mouth rinse or no treatment. • Antimicrobial mouth rinse was used twice daily for two weeks leading up to the endoscopy. The two-week time frame was chosen as a practical end-point for the clinical study, and treatment can be for any desired period of time, i.e. to obtain the desired microbiome mix. • Baseline sample collection: Saliva, oral swab. • Samples collected at follow-up (day of endoscopy): Saliva, oral swab, esophageal brushings, gastric cardia brushings.
(§2) Patients scheduled to undergo upper endoscopy were randomized to treatment with chlorhexidine 0.12% mouth rinse or no mouth rinse for two weeks leading up to the endoscopy. Oral samples (swabs and saliva) were collected at baseline and after two weeks. During the endoscopy, brushings of the esophagus and of the gastric cardia were collected to sample the microbiome.
An interim analysis was performed on the esophageal brushings collected during upper endoscopy. Approximately one half of the bacteria in the esophagus can be readily cultured. Thus, it was hypothesized that a change in the amount of culturable bacteria (either increased or decreased) would reflect a change in the proportion of culturable:non-culturable bacteria in the esophagus. Samples from the first 14 subjects (8 controls not using mouth rinse, 6 subjects using chlorhexidine mouth rinse) were collected, and solutions were prepared from these samples. The samples were then plated onto trypticase soy agar (TSA) plates with 5% sheep blood and incubated for 18 hours at 37° C.

[2] = tested on: salivary microbiome; test: 16S rRNA gene sequencing of saliva, randomized trial of antimicrobial mouth rinse; details: LEfSe
Source text: as §1, §2
16 S rRNA gene sequencing was performed on all of the biosamples. The V3-V4 hypervariable region for all samples was sequenced using the Illumina HiSeq 2500 in Rapid Mode with 2×300 bp read length (Illumina, San Diego, Calif.). The Greengenes reference database was used. Taxonomic units were clustered at 97% sequence similarity using USEARCH and taxonomic assignments were made using mothur. […]

[3] = tested on: esophageal microbiome; test: 16S rRNA gene sequencing of esophageal brushings, randomized trial of antimicrobial mouth rinse
Source text: as §1, §2
16 S rRNA gene sequencing was performed on all of the biosamples. The V3-V4 hypervariable region for all samples was sequenced using the Illumina HiSeq 2500 in Rapid Mode with 2×300 bp read length (Illumina, San Diego, Calif.). The Greengenes reference database was used. Taxonomic units were clustered at 97% sequence similarity using USEARCH and taxonomic assignments were made using mothur. A phylogenetic tree of the contigs was generated with FastTree version 2.1.7.
In order to determine whether chlorhexidine alters the esophageal microbiome, a comparison of the microbiome composition from esophageal samples was performed, comparing the treatment and no treatment arms.

[4] = 0.12% mouth rinse twice daily for two weeks before endoscopy, n = 6, plated on TSA, 18 hours at 37° C.

With `[H]/N=C(\N/C(=N/[H])NCCCCCCNC(=N)NC(=N)Nc1ccc(Cl)cc1)Nc1ccc(Cl)cc1` [Chlorhexidine, chlorhexidine] the “Mean (SE) CFU/mL from esophageal brushings collected at endoscopy” value [1, 4] was 56,433 (42,654) CFU/mL, the “Mean (SE) number of colonies from esophageal brushings collected at endoscopy” value [1, 4] was 282 (213) and the “numbers of culturable bacteria (colonies and CFU/mL) in the esophagus compared to no chlorhexidine rinse” value ([1]; FIGS. 3A-B) was “increased numbers of culturable bacteria”. For the same compound, the “increase in growth of culturable bacteria compared to the arm not receiving mouth rinse” value ([1]; esophageal brushings, 6 subjects using rinse vs 8 controls) was 68%, the “taxonomic changes in salivary microbiome after treatment compared to baseline” value ([2]; 2 weeks' treatment, FIG. 4A) was “Numerous taxa were altered” and the “differences in salivary microbiome at follow-up versus no treatment in phylum Firmicutes and species Haemophilus parainfluenzae” value ([2]; follow-up, FIG. 4B) was “large differences were seen”. For the same compound, the “beta diversity analysis of esophageal microbiome, clustering by treatment group” value ([3]; FIG. 5) was “significant clustering by treatment group”, the “esophageal microbiome composition compared to patients receiving no treatment” value ([3]; FIGS. 5-6) was “markedly distinct” and the “relative abundance of Haemophilus in the esophageal microbiome” value ([3]; vs no treatment arm, FIG. 6) was “significantly decreased”. For the same compound, the “relative abundance of Streptococcus in the esophageal microbiome” value ([3]; vs no treatment arm, FIG. 6) was “increased”.
